Results published in patent US20090203877A1, “X-RAY-DENSE CONJUGATE” (Eberhard-Karls-Universitaet Tuebingen Universitaetsklinkum, priority 2006, published 2009).
Entries after “also recorded” stand apart in the source; their conditions may differ.

Legend:
[1] = test system: human malignant U373 glioma cells; experiment: Cell viability / cell death (MTT test, propidium iodide, annexin-V-Alexa 568 binding, FACS scatter morphology); conditions: for binding of annexin-V-Alexa 568 reagent (phosphatidyl serine) / cytotoxic effects: 260 μM in 0.1% DMSO/PBS; for binding of annexin-V-Alexa 568 reagent (phosphatidyl serine) / cytotoxic effects / cytotoxic effects / signs of cell death: substance alone; for cytotoxic effects / signs of cell death: 260 μM in PBS
Protocol: Human malignant U373-glioma cells were grown to 70% confluency in RPMI-1640 Ready Mix Medium containing L-Glutamine and 10% FBS-Gold (PAA laboratories, Pasching, Austria) at 37° C., 5% CO2 (vol/vol), in 4-well-plates (NUNC, Wiesbaden, Germany) with about 300,000 cells pro well. […] After this, the cells were washed three times with buffer and then incubated with Ready Mix Medium again. Cell viability was then assessed by the addition of methyl-thiazoyl-tetrazolium (MTT) salt (Sigma-Aldrich, Germany) at a concentration of 15 mg/ml. After 20 minutes, the production of formazan was investigated. When blue formazan granules were detected, propidium iodine (PI) was added to the medium (1 μM PI; Molecular Probes, Eugene, Oreg., USA) to detect cells with damaged cell membranes. […] Pictures were taken with a 3-CCD color video camera (MC3254P, Sony, Japan) and the Axiovision Software (Carl Zeiss, Jena, Germany). The intensity of cell fluorescence was recorded at the exposure time necessary for the production of the fluorescence images.
After imaging, Accutase™ (PAA laboratories, Pasching, Austria) was added to the wells to achieve detachment of the cells for further FACS analysis. Fluorescence was measured in a Becton Dickinson FACSCalibur. A total of 20,000 events per sample were analyzed. The investigations were performed in triplicate.
A sample of cells from each Eppendorf tube was subjected to the MTT test (described under 1.4) to determine microscopically whether the cells were viable. In vitro CT of the cell pellets was performed with a Somatom Sensation 16 (Siemens) which is used for routine clinical investigations.
Cells were incubated for 20 minutes with each of the conjugates dissolved in 0.1% DMSO/PBS at 260 μm. The cells were also incubated with TIBA and both of the non-TIBA-containing conjugates (3 and 4) separately in 0.1% DMSO/OBS at 260 μm. Both TIBA and the conjugates were dissolved in 0.1% DMSO/PBS at 260 μm for incubation due to the insolubility of TIBA (but not the conjugates) in pure PBS. As controls, the cells were incubated with PBS alone, 0.1% DMSO/PBS alone, and TIBA alone (260 μm in 0.1% DMSO/PBS).
The detection of phosphatidyl serine in the outer membrane leaflet of apoptotic cells was performed with the Annexin-V-Alexa™-568-reagent according to manufacturer's protocol (Roche Molecular Biochemicals, Indianapolis, USA). The confocal laser-scanning microscopy was performed on an inverted LSM 510 laser-scanning microscope (Carl Zeiss, Jena, Germany) (objectives: LD Achroplan 40×0.6, Plan Neofluar 20×0.50, 40×0.75). For fluorescence excitation, the 488 nm line of an argon-ion laser and the […] line of a helium-neon laser with appropriate beam splitters and barrier filters were used for FITC and Alexa respectively. Superimposed images of FITC- and Alexa-stained samples were created by overlaying coincident views. All measurements were performed on living, non-fixed cells.
Human malignant LN18 and U373 glioma cells were cultivated in four-well plates (NUNC, Wiesbaden, Germany) (about 300,000 cells per well) as described under 1.5. […] The cells were also coincubated either with CIBA, FIBA or TBPI as well as the NLS-FITC conjugate 3 (each 260 μM). As a control cells were used which were only incubated either with CIBA, FIBA or TBPI (260 μM in PBS) alone. After the incubation the cells were washed three times with PBS and in the following again incubated in Ready Mix Medium. The FITC-labelled conjugates and the Alexa-Annexin for the detection of phosphatidylserine as a signal of the cell death were localized with the confocal laser microscopy (CLSM) as in 1.6.1. All measurements were performed on living cells.

[2] = test system: human malignant LN18 glioma cells; experiment: Cell viability / cell death (annexin-V-Alexa 568 binding, propidium iodide, FACS scatter morphology); type: cell-based; conditions: 260 μM, 20 min, substance alone
Protocol: All measurements were performed on living, non-fixed cells. […] All measurements were performed on living cells. […] All measurements were performed on living cells in triplicates. […] All measurements were performed on living cells.

[3] = test system: human malignant LN18 glioma cells; experiment: Uptake/staining of cells by FITC-labelled conjugates (CLSM, FACS, semi-thin sections); type: cell-based; conditions: 20 min; for stained cells: 260 μM in PBS; for nuclear staining of cells (CLSM), in words: 260 μM
Protocol: The human malignant U373 and LN18 glioma cells were cultivated in 75 cm^2 culture flasks (Corning Costar) (70% confluency) under the conditions as described under 1.4, detached from the flask bottom with Accutase™ (PAA Laboratories) and in the following distributed on Eppendorf tubes (Eppendorf, Hamburg, Germany) (6×10^6 per tube). The cells in the first tube serve as a control (only PBS buffer only). The cells in the other ten tubes were each incubated with benzoic acid (BA), monoiodobenzoic acid (MIBA) or diiodobenzoic acid (DIBA) alone (260 μM), conjugate 3 alone (260 μM), conjugate 3 plus either BA, MIBA or DIBA (260 μM), respectively, and the conjugates 9, 10, and 11 alone. (260 μM).
After an incubation of 20 minutes at 37° C./5% CO2 the cells were washed three times with PBS buffer and centrifuged at 800 rpm (rounds per minute) for 5 minutes. The fluorescence was measured in Becton Dickinson FACSCalibur as described under 1.4. The computer tomography was performed as described under 1.5.1. The examinations were repeated two times. […]
The FACS analysis was performed as described under 1.4. The assay was repeated two times.
For the CT and FACS examinations human LN18 and U373 glioma cells were cultivated in 75 cm^2 culture flasks (70% confluency) (conditions as described under section 1). Accutase™ (PAA Laboratories) was added to detach the cell from the culture bottom. The cells were collected and then distributed on Eppendorf-tubes (6×10^6 cells per tube). […] The next three tubes were used for the coincubation of the cells either with trichlorobenzoic acid (TCBA), trifluorobenzoic acid (TFBA) or tribromophenyl Isocyanat (TBPI) and the NLS-FITC-conjugate 3 (260 μM). As control cells were used which were only either incubated with CIBA, FIBA, TBPI (in each case 260 μM in PBS) or with PBS-buffer (native control) alone. […] The computer tomography and FACS analysis of the cell centrifuges were performed as described in 1.5.1 or 1.4, respectively for three times.
All measurements were performed on living cells.
All measurements were performed on living cells in triplicates.
A part of the cells which were stained for the FACS analysis, was fixed by paraformaldehyl with 2% Agar, dehydrogenized in ethanol, embedded in Lowicryl K4M (Polysciences, Eppelheim, Germany) and according to the information of the manufacturer UV-polymerised at room temperature. Semi-thin sections (about 0.4 μm) were cut and evaluated by means of fluorescence microscopy.

Substance | cell viability (MTT formazan, propidium iodide uptake) ([1]; 26 μM, 20 min) | cellular morphology, side scatter versus forward scatter FACS ([1]; 26 μM, compared to PBS controls) | binding of annexin-V-Alexa 568 reagent (phosphatidyl serine) / cytotoxic effects ([1]; 20 min) | cytotoxic effects / signs of cell death ([1]; 20 min) | binding of annexin-V-Alexa 568 reagent / cell viability ([1]; conjugate co-incubated with free TIBA (260 μM)) | cell viability / cell death ([1]; non-TIBA conjugates, 26 μM, 260 μM and 2.6 mM) | cell death / vitality (annexin-V-Alexa 568, propidium iodide) [2] | stained cells [3] [%] | nuclear staining of cells (CLSM), in words [3]
PKKKRKVK(FITC)GGK(TIBA) (FITC, GGK linker, TIBA) [conjugate 1] | living cells; also recorded: no signs of cell death | no changes in the cellular morphology | binding of annexin-V-Alexa™ 568 reagent was found; also recorded: Most of these cells show the expression of phosphatidyl serine in the outer membrane leaflet |  |  |  |  |  | 
PKKKRKVK(FITC)GGK (FITC, GGK linker) [conjugate 3, FITC-labelled correct NLS of the SV 40 T antigen without TIBA] |  |  | did not result in binding | did not show any signs of cell death; also recorded: without a sign of cell dead | fails to result in binding; also recorded: did not result in any changes | No cell death | remain vital; also recorded: did not show any signs of cell death; also recorded: without a sign of cell dead | 9 | nuclear staining of few cells; also recorded: does only stain the nucleus of few cells
PKKKRKVK(FITC)GGK(BA) (FITC, GGK linker, benzoic acid) [conjugate 9, FITC-labelled NLS of the SV 40 T antigen with non-iodized benzoic acid] |  |  |  | no signs of cell death |  |  | remain vital; also recorded: no signs of cell death; also recorded: remain viable | 9 | nuclear staining of few cells; also recorded: the staining rate did not increase
